Source: PMC7862291, “Full-length in meso structure and mechanism of rat kynurenine 3-monooxygenase inhibition” (Communications Biology, 2021)
Several values for one entry are separate records, joined by “and”; a condition that tells them apart may be missing. Identical values can stand only once. Like-named read-outs stand apart in the source and are kept apart here.

Tests used:
[1] = target: T1, HEK293 cells stably expressing human KMO (Homo sapiens, UniProt O15229); experiment: Cell-based human KMO inhibition assay (LC/MS of 3-hydroxykynurenine); conditions: for inhibition rate, Hs-KMO cellular assay (Figure 1C source data): duplicates
T1 construct: expressed in transfected cells
Experimental: (§1) HEK293 cells stably expressing human or rat KMO were maintained in DMEM containing 10% fetal bovine serum, 50 units/mL penicillin, 50 μg/mL streptomycin and 0.2 mg⁄mL zeocine. […] After 2 overnights, the medium was replaced with 10 μL/well of assay buffer (1 × HBSS containing 20 mM HEPES). Ten microliters per well of the diluted test compounds (final, 0–30 μM, 0.3% DMSO) were added to the respective wells. After ~30 min of pre-incubation at 37 °C, reactions were started by adding 20 μL of substrate solution containing 0.2 mM kynurenine. Reactions were run for 2 h at 37 °C, the assay buffer was discarded and the plate was immediately frozen and stored at −30 °C until LC/MS analysis.
(§2) An 80 µL volume of cold acetonitrile with 2% formic acid was added to the cell pellet in a 384-well plate and centrifuged at 3000 rpm for 10 min at 4 °C. A 40 µL volume of the supernatant was transferred to a new 384-well plate and evaporated to dryness under nitrogen gas at 45 °C. The residue was reconstituted in 100 µL of acetonitrile/water (10:90, v/v) with 0.1% formic acid, and 1 µL was injected into the LC-MS/MS system.
(§3) LC/MS/MS was performed on a Shimadzu UFLC Nexera X2 (Shimadzu Corporation, Japan) and an QTRAP® 5500 LC-MS/MS System (SCIEX, Framingham, USA). Chromatographic separation was performed using an Allure PFP Propyl analytical column (5 µm, 2.1 × 100 mm) maintained at 50 °C. The autosampler temperature was set at 15 °C. The mobile phase consisted of formic acid/water/acetonitrile/methanol (0.5/500/250/250, v/v/v/v) and the flow rate was set at 0.3 mL/min. 3-hydroxykynurenine was eluted from the LC column at a retention time of 1.2 min. The MS system was operated using electrospray ionization (ESI) in positive mode. The optimum conditions were curtain gas, 20 psi; ion spray voltage, 5500 V; heated nebulizer temperature (TEM), 700 °C; nebulizing gas (GS1), 70 psi; and heater gas (GS2), 70 psi. […] Analyst® software (SCIEX, Framingham, USA) was used for system control and MultiQuant™ Software (SCIEX, Framingham, USA) was used for data analysis.
(§4) Compound assays were analysed and plotted on graphs using Prism (GraphPad Software Inc. San Diego, CA, USA).

[2] = target: T2, HEK293 cells stably expressing rat KMO (Rattus norvegicus, UniProt O88867); experiment: Cell-based rat KMO inhibition assay (LC/MS of 3-hydroxykynurenine); conditions: duplicates
T2 construct: expressed in transfected cells
Experimental: as §1, §2, §3, §4

[3] = test system: KMO; design: method as in ref 20 Winkler et al; conditions: 100 kynurenine, CHO cells, LC/MS; ref 20 Winkler et al; read-out: cellular IC50 (Winkler et al); cited from earlier work
[4] = target: T3, Rat KMO (Rattus norvegicus, UniProt O88867); experiment: Rat KMO enzyme (cell-free) assay, NADPH consumption by absorbance; assay type: biochemical; conditions: duplicates
T3 construct: The GST-tagged full-length KMO (1-478) baculovirus vector contained a thrombin cleavage site; GST (thrombin cleavage site between GST and KMO) (N, cleaved yes); made in house; host or cells: Spodoptera frugiperda (Sf9), baculovirus
Experimental: (§5) Human KMO was purchased from Origene and used to assay compounds. Full-length Rat-KMO purified for crystallisation was used to assay compounds. Full-length Rat-KMO-expressing membranes were used for mutant assays (Fig. 4b) only. […] Images were taken using Odyssey CLX (LI-COR Biosciences) and quantified using ImageStudio2.0 (LI-COR Biosciences) software.
(§6) Test compounds were dissolved in DMSO and diluted with assay buffer containing 50 mM HEPES, 2 mM MgCl2, 0.5 mM EGTA, 1 mM DTT, 0.05% Tween20 and 0.005% of antiform SI (pH = about 7.9) to prepare a 4% DMSO solution. […] After 5 min of pre-incubation, reactions were started by adding 10 μL of substrate solution containing 2.4 mM kynurenine and 0.6 mM NADPH. Reactions were run for 90 min at 30 °C, then terminated by adding 5 μL of stop buffer (40 mM maleimide, 2 mM WST-9 and 0.1 mM 1-methoky PMS in water). […] Liposomal assays were performed in the same manner except that the composition of the assay buffer was changed (phosphate-buffered saline, 2 mM MgCl2, 1 mM DTT, 0.05% Tween 20).
as §4

[5] = target: T4, hKMO (Homo sapiens, UniProt O15229); experiment: Human KMO enzyme (cell-free) assay, NADPH consumption by absorbance; assay type: biochemical; conditions: for inhibition rate, Hs-KMO cell-free assay (Figure 1A source data): duplicates
T4 construct: purchased Origene
Experimental: as §5, §6, §4

[6] = test system: KMO; design: method as in ref 27 Jacobs et al; conditions: 600 μM kynurenine, recombinant protein, fluorescence; ref 27 Jacobs et al; cited from earlier work

T2 sequence (O88867 whole entry): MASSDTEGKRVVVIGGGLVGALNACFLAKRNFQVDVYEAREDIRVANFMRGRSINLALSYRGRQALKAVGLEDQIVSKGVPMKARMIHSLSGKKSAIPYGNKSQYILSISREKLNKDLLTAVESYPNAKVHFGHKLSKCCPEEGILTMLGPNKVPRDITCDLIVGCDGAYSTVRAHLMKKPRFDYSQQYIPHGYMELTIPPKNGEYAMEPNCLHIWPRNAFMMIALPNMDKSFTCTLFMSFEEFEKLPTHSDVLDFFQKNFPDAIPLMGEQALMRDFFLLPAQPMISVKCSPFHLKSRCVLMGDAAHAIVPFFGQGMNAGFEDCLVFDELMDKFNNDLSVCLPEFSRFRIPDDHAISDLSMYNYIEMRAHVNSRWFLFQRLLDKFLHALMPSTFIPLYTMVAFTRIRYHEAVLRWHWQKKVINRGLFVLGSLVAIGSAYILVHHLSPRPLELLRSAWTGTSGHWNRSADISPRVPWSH
T3 sequence (O88867 whole entry): as above
T1 sequence (O15229 whole entry): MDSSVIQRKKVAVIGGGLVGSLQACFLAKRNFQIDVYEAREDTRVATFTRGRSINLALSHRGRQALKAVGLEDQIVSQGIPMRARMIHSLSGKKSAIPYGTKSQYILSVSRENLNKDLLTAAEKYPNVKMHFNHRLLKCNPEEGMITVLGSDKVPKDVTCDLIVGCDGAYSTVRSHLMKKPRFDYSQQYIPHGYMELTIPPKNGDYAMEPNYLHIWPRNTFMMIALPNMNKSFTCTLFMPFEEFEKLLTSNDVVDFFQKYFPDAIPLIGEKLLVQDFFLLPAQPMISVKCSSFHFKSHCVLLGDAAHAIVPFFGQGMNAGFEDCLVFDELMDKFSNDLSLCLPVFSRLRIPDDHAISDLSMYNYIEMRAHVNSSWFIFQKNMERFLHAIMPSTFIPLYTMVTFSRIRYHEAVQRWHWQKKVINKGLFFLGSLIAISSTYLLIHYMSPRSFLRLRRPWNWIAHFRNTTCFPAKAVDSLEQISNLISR
T4 sequence (O15229 whole entry): as above

For `COc1ccc(S(=O)(=O)Nc2nc(-c3cccc([N+](=O)[O-])c3)cs2)cc1OC` [Ro 61-8048, reference compound], the IC50 ([1]; 100 μM kynurenine, HEK293, LC/MS, species not given, read-out: cellular IC50 (this study)) was 1.2 µM, the “inhibition rate, Hs-KMO cellular assay (Figure 1C source data)” value (“inhibition rate, Hs-KMO cellular assay” for short) ([1]; conc 0.03 μM) was 4.914% and 11.092% and the “inhibition rate, Hs-KMO cellular assay” value ([1]; conc 0.1 μM) was 7.800% and 13.947%. For the same molecule, the “inhibition rate, Hs-KMO cellular assay” value ([1]; conc 0.3 μM) was 9.982% and 16.379%, the “inhibition rate, Hs-KMO cellular assay” value ([1]; conc 1 μM) was 34.540% and 30.293% and the “inhibition rate, Hs-KMO cellular assay” value ([1]; conc 3 μM) was 100.863% and 99.409%. The “inhibition rate, Hs-KMO cellular assay” value ([1]; conc 10 μM) was 104.869% and 104.896%, the “inhibition rate, Hs-KMO cellular assay” value ([1]; conc 30 μM) was 105.453% and the “inhibition rate, Rat-KMO cellular assay (Figure 1D source data)” value (shortened to “inhibition rate, Rat-KMO cellular assay”) ([2]; conc 0.03 μM) was 12.914% and 13.940%. For the same molecule, the “inhibition rate, Rat-KMO cellular assay” value ([2]; conc 0.1 μM) was 6.038% and 6.971%, the “inhibition rate, Rat-KMO cellular assay” value ([2]; conc 0.3 μM) was 6.605% and 2.668% and the “inhibition rate, Rat-KMO cellular assay” value ([2]; conc 1 μM) was 18.248% and 25.802%. For the same molecule, the “inhibition rate, Rat-KMO cellular assay” value ([2]; conc 3 μM) was 86.872% and 86.727%, the “inhibition rate, Rat-KMO cellular assay” value ([2]; conc 10 μM) was 97.726% and 97.601% and the “inhibition rate, Rat-KMO cellular assay” value ([2]; conc 30 μM) was 99.995% and 100.184%. The IC50 [3] was 0.64 µM, the “inhibition rate, Rat-KMO cell-free assay (Figure 1B source data)” value (“inhibition rate, Rat-KMO cell-free assay” for short) ([4]; conc 0.03 μM) was 9.186% and 13.905% and the “inhibition rate, Rat-KMO cell-free assay” value ([4]; conc 0.1 μM) was 21.990% and 21.221%. For the same molecule, the “inhibition rate, Rat-KMO cell-free assay” value ([4]; conc 0.3 μM) was 47.520% and 47.997%, the “inhibition rate, Rat-KMO cell-free assay” value ([4]; conc 1 μM) was 71.114% and 72.121% and the “inhibition rate, Rat-KMO cell-free assay” value ([4]; conc 3 μM) was 77.185% and 81.347%. For the same molecule, the “inhibition rate, Rat-KMO cell-free assay” value ([4]; conc 10 μM) was 87.099% and 89.538%, the “inhibition rate, Rat-KMO cell-free assay” value ([4]; conc 30 μM) was 98.075% and 95.980% and the “inhibition rate, Rat-KMO cell-free assay” value ([4]; conc 100 μM) was 89.963% and 91.580%. The IC50 ([5]; 1200 μM kynurenine, recombinant protein, absorbance, species not given, read-out: IC50 (cell-free assay, this study)) was 1.4 µM, the “inhibition rate, Hs-KMO cell-free assay (Figure 1A source data)” value (“inhibition rate, Hs-KMO cell-free assay” below) ([5]; conc 0.03 μM) was 7.785% and 11.650% and the “inhibition rate, Hs-KMO cell-free assay” value ([5]; conc 0.1 μM) was 5.377% and 7.729%. For the same molecule, the “inhibition rate, Hs-KMO cell-free assay” value ([5]; conc 0.3 μM) was 12.406% and 14.871%, the “inhibition rate, Hs-KMO cell-free assay” value ([5]; conc 1 μM) was 37.359% and 37.779% and the “inhibition rate, Hs-KMO cell-free assay” value ([5]; conc 3 μM) was 72.366% and 74.382%. For the same molecule, the “inhibition rate, Hs-KMO cell-free assay” value ([5]; conc 10 μM) was 94.630%, the “inhibition rate, Hs-KMO cell-free assay” value ([5]; conc 30 μM) was 102.611% and 104.600% and the “inhibition rate, Hs-KMO cell-free assay” value ([5]; conc 100 μM) was 98.579% and 94.322%. For the same molecule, the IC50 [6] was 0.78 ± 1 µM.
